In patent US20160003808A1, “MOLECULAR TARGETS AND COMPOUNDS, AND METHODS TO IDENTIFY THE SAME, USEFUL IN THE TREATMENT OF DISEASES ASSOCIATED WITH EPITHELIAL MESENCHYMAL TRANSITION” (GALAPAGOS NV, priority 2013, published 2016):

Tests used:
Fibronectin (FN) = assay: EMT on target screen, FN read-out; assay type: cell-based, human; conditions: for OT FN Screen Z-score 2: as E11, duplicate 2; for Both (shRNA is a hit again in both OT assays, Yes/No): on target validation, Table 16; for OT FN Screen Z-score 1: robust Z-score, HBEC donor Br299, duplicate 1, cut-off Z ≦ −1.25
MMP10 = assay: EMT on target screen, MMP10 read-out; assay type: cell-based, human; conditions: for OT MMP10 Screen Z-score 2: as E13, duplicate 2; for OT MMP10 Screen Z-score 1: robust Z-score, HBEC donor Br299, duplicate 1, cut-off Z ≦ −1.25

Row | Substance | OT FN Screen Z-score 2 (Fibronectin (FN)) | Both (shRNA is a hit again in both OT assays, Yes/No) (Fibronectin (FN)) | OT FN Screen Z-score 1 (Fibronectin (FN)) | OT MMP10 Screen Z-score 2 (MMP10) | OT MMP10 Screen Z-score 1 (MMP10) | OT CTB assay Z-score 1 (HBEC) | OT CTB assay Z-score 2 (HBEC)
1 | 46 (ACTTCTGAGAGGTCACAGC; chemistry not given here) [compound 46] | -7.86 | yes | -8.84 | -2.42 | -2.20 | -2.43 | -5.13
2 | 47 (GAACACGTACAAAGTCATT; chemistry not given here) [compound 47] | -5.03 | no | -4.88 | -6.24 | -11.24 | -7.55 | -4.92
3 | 48 (GGATGGAGTTGGGAATCAC; chemistry not given here) [compound 48] | -3.44 | yes | -3.28 | -2.43 | -2.26 | -1.14 | -3.01
4 | 49 (GAGGATGCCATTAAGTATT; chemistry not given here) [compound 49] | -1.84 | no | -1.75 | 0.87 | 0.57 | -0.78 | -0.88
5 | 50 (GAGGCAGCCTTGTACTCTT; chemistry not given here) [compound 50] | -4.42 | no | -2.42 | -0.49 | 1.32 | -0.51 | 2.33
6 | 51 (GGATCTTGGGTCCTATCCC; chemistry not given here) [compound 51] | -3.08 | no | -2.90 | -0.23 | -0.02 | -0.73 | -2.03
7 | 52 (TGAATACTATGTGGGATTC; chemistry not given here) [compound 52] | -3.74 | yes | -3.30 | 0.95 | 1.96 | -3.43 | -3.45
8 | 53 (TCAGCTGGGCGCTATGTTC; chemistry not given here) [compound 53] | -2.98 | no | -3.01 | 0.45 | -0.41 | -3.97 | -4.28
9 | 54 (GACTGGAAAGCGACGGGTC; chemistry not given here) [compound 54] | -3.15 | no | -3.47 | 0.94 | 0.62 | -4.02 | -5.83
10 | 55 (AGGCTCACTTGCCTTTGGC; chemistry not given here) [compound 55] | -6.07 | yes | -4.43 | 0.18 | 0.92 | -4.29 | -8.29
11 | 56 (TGATGGTTACCGCAAGATC; chemistry not given here) [compound 56] | -3.69 | yes | -2.74 | -5.05 | -3.35 | 0.64 | -2.23
12 | 57 (CCAAACCTGTGTCAACTTC; chemistry not given here) [compound 57] | -3.69 | no | -8.59 | -1.94 | -0.60 | -1.43 | 0.38
13 | 58 (GATCCCAGCAGTTATAACA; chemistry not given here) [compound 58] | -6.55 | no | -2.47 | -3.41 | -3.06 | -4.03 | -2.02
14 | 59 (TGAAGGTCAAGAAGCCGGC; chemistry not given here) [compound 59] | -8.92 | yes | -6.20 | -1.19 | -1.71 | -6.59 | -4.59
15 | 60 (AACCTGGCCATTCAGACCC; chemistry not given here) [compound 60] | -2.96 | yes | -2.56 | -0.06 | -1.88 | -7.10 | -2.00
16 | 61 (CAATTCCCAAGGACAGGCT; chemistry not given here) [compound 61] | -1.44 | no | -1.65 | -2.31 | -2.21 | 0.59 | 0.86
17 | 62 (CAGATTCCATCTGATGGCC; chemistry not given here) [compound 62] | -5.21 | yes | -4.99 | -2.79 | -2.75 | -3.19 | -2.25
18 | 63 (GAATTTCAGAAGTACTGTG; chemistry not given here) [compound 63] | -3.76 | no | -3.62 | 2.02 | 1.53 | -2.12 | -3.06
19 | 64 (GTCCAACAGAAGTACGTGC; chemistry not given here) [compound 64] | -2.52 | no | -3.09 | 1.09 | -0.07 | 1.00 | -1.33
20 | 65 (GGCCATGATTGAGAAACTC; chemistry not given here) [compound 65] | -4.03 | no | -4.35 | -3.44 | -5.08 | 1.09 | 1.89
21 | 66 (GAAGGAGCTACTCATCTTC; chemistry not given here) [compound 66] | -4.82 | yes | -2.81 | 0.70 | -1.93 | -2.25 | -4.39
22 | 67 (CAAGAGCGATGCCTATTAC; chemistry not given here) [compound 67] | -2.65 | no | -3.19 | 0.32 | 1.39 | -3.77 | -3.83
23 | 68 (CATCAGCTTCCTGCTGGGC; chemistry not given here) [compound 68] | -5.66 | yes | -4.29 | -0.35 | -1.18 | -2.64 | -2.21
24 | 69 (GATGGAGCGCTTACACTAC; chemistry not given here) [compound 69] | -5.75 | no | -4.37 | -3.43 | -4.95 | -3.34 | -1.32
25 | 70 (GAGTTTGCCTACTCAGAGG; chemistry not given here) [compound 70] | -4.05 | no | -4.52 | -1.35 | -4.35 | 0.19 | 1.51
26 | 71 (CACGGCTCTCCTATTTGTC; chemistry not given here) [compound 71] | -1.64 | no | -1.73 | 0.95 | 0.88 | -5.58 | -4.56
27 | 72 (GAGTTGGACAGTGGAGGAC; chemistry not given here) [compound 72] | -7.31 | yes | -3.99 | -6.59 | -4.52 | -3.13 | -4.22
